Patent publication US20240218022A1, “ANTI-VISTA MACROCYCLIC PEPTIDES AND COMPOSITIONS” (BRISTOL-MYERS SQUIBB COMPANY, priority 2022, published 2024)
pIC50: −log10 of the molar value. Where two headings read alike, the source gives them in different places. Starred links: 1 amine or outer side, 2 acyl side, 3 side chain; linkers in the order of their positions; H or OH if unused. Positions of bridges follow the written chain, without caps; N, C: chain ends. Non-standard residues stand in square brackets, D forms with d. Residues, ends and D or L forms follow the SMILES beside them. Phe(3-Me) = Cc1cccc(C[C@H](N)C(=O)O)c1; γGlu = O=C(O)[C@H](CCC(=O)[*:2])N[*:1]; βAsp = O=C(O)[C@H](CC(=O)[*:2])N[*:1]; Ahp(2) = CCCCC[C@H](N)C(=O)O; NMeNle = CCCC[C@H](NC)C(=O)O; Tle = CC(C)(C)[C@H](N)C(=O)O; NHexGly = CCCCCCNCC(=O)O; Nle = CCCC[C@H](N)C(=O)O; Aun = NCCCCCCCCCCC(=O)O; Dab = NCC[C@H](N)C(=O)O; Nva = CCC[C@H](N)C(=O)O; Abu = CC[C@H](N)C(=O)O; Dap = NC[C@H](N)C(=O)O; AEEA = NCCOCCOCC(=O)O

Target: T1, mouse VISTA (mVISTA) (Mus musculus, UniProt Q9D659)
T1 construct: expressed in transfected cells; host or cells: Human embryonic kidney 293T cells
T1 sequence (Q9D659 33-308): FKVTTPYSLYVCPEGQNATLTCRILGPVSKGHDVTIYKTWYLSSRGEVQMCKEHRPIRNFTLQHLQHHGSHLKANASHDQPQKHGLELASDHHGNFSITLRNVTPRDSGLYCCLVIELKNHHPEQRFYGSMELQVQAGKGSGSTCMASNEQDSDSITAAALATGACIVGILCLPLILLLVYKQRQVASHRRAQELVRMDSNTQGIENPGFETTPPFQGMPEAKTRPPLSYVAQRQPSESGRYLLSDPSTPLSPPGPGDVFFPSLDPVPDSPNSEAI
Experiment: Cell-Based Binding High-Content Assay For mVISTA (HC CBA mVISTA)
Details: read-out: HC CBA mVISTA IC50
In short: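 This high-content binding assay uses HEK293T cells expressing murine VISTA, measuring displacement of 2 nM biotinylated peptide by fluorescent streptavidin imaging. IC50 values come from four-parameter logistic fitting.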

[1] = cell-based binding high-content assay

SMILES | pIC50 | pIC50 [1] | also measured
CCCCCCN1CC(=O)N[C@@H](Cc2ccc(O)cc2)C(=O)N[C@@H](CCCC)C(=O)N[C@@H](CC(N)=O)C(=O)N[C@@H](CCCNC(=N)N)C(=O)N(C)[C@@H](CCCC)C(=O)N[C@@H](CCCCC)C(=O)N2CCC[C@H]2C(=O)N[C@@H](C(C)C)C(=O)N[C@@H](CC(=O)O)C(=O)N[C@H](C(=O)NCCOCCOCC(=O)N[C@@H](CC(=O)NCCOCCOCC(=O)NCCCCCCCCCCC(=O)O)C(=O)O)CSCC(=O)N[C@@H](Cc2ccccc2)C(=O)N[C@@H](Cc2c[nH]c3ccccc23)C(=O)N[C@@H](CC(=O)O)C1=O [Example 2204] ({CH2CO}-FWD[NHexGly]Y[Nle]NR[NMeNle][Ahp(2)]PVDC[AEEA][βAsp][AEEA][Aun]-OH; thioether N-14) | 7.83 |  | 
CCCCCCN1CC(=O)N[C@@H](Cc2ccc(O)cc2)C(=O)N[C@@H](CC(C)C)C(=O)N[C@@H](CC(=O)O)C(=O)N[C@@H](CCCNC(=N)N)C(=O)N(C)[C@@H](CCCC)C(=O)N[C@@H](CCCCC)C(=O)N2CCC[C@H]2C(=O)N[C@@H](C(C)(C)C)C(=O)N[C@@H](CC(N)=O)C(=O)N[C@H](C(=O)NCCOCCOCC(=O)N[C@@H](CC(=O)NCCOCCOCC(=O)NCCCCCCCCCCC(=O)O)C(=O)O)CSCC(=O)N[C@@H](Cc2ccccc2)C(=O)N[C@@H](Cc2cccc(C)c2)C(=O)N[C@@H](CC(=O)O)C1=O [Example 2212] ({CH2CO}-F[Phe(3-Me)]D[NHexGly]YLDR[NMeNle][Ahp(2)]P[Tle]NC[AEEA][βAsp][AEEA][Aun]-OH; thioether N-14) | 7.46 |  | 
CCCCCCN1CC(=O)N[C@@H](Cc2ccc(O)cc2)C(=O)N[C@@H](CC(C)C)C(=O)N[C@@H](CC(N)=O)C(=O)N[C@@H](CCCNC(=N)N)C(=O)N(C)[C@@H](CCCC)C(=O)N[C@@H](CCCCC)C(=O)N2CCC[C@H]2C(=O)N[C@@H](C(C)(C)C)C(=O)N[C@@H](CO)C(=O)N[C@H](C(=O)N[C@@H](CCC(=O)N[C@@H](CCN)C(=O)NCCCCCCCCCCC(=O)O)C(=O)O)CSCC(=O)N[C@@H](Cc2ccccc2)C(=O)N[C@@H](Cc2ccc(O)cc2)C(=O)N[C@@H](CC(=O)O)C1=O [Example 2323] ({CH2CO}-FYD[NHexGly]YLNR[NMeNle][Ahp(2)]P[Tle]SC[γGlu][Dab][Aun]-OH; thioether N-14) |  | 7.47 | 
CCCCCCN1CC(=O)N[C@@H](Cc2ccc(O)cc2)C(=O)N[C@@H](CCCC)C(=O)N[C@@H](CC(N)=O)C(=O)N[C@@H](CCCNC(=N)N)C(=O)N(C)[C@@H](CCCC)C(=O)N[C@@H](CCCCC)C(=O)N2CCC[C@H]2C(=O)N[C@@H](C(C)(C)C)C(=O)N[C@@H](CO)C(=O)N[C@H](C(=O)NCC(=O)N[C@@H](CC(=O)NCCOCCOCC(=O)NCCCCCCCCCCC(=O)O)C(=O)O)CSCC(=O)N[C@@H](Cc2ccccc2)C(=O)N[C@@H](Cc2cccc(C)c2)C(=O)N[C@@H](CC(=O)O)C1=O [Example 2327] ({CH2CO}-F[Phe(3-Me)]D[NHexGly]Y[Nle]NR[NMeNle][Ahp(2)]P[Tle]SCG[βAsp][AEEA][Aun]-OH; thioether N-14) |  | 7.47 | 
CCCCCCN1CC(=O)N[C@@H](Cc2ccc(O)cc2)C(=O)N[C@@H](CCCC)C(=O)N[C@@H](CC(N)=O)C(=O)N[C@@H](CCCNC(=N)N)C(=O)N(C)[C@@H](CCCC)C(=O)N[C@@H](CCCCC)C(=O)N2CCC[C@H]2C(=O)N[C@@H](C(C)(C)C)C(=O)N[C@@H](CC(=O)O)C(=O)N[C@H](C(=O)N[C@@H](CO)C(=O)NCCOCCOCC(=O)NCCCCCCCCCCC(=O)O)CSCC(=O)N[C@@H](Cc2ccccc2)C(=O)N[C@@H](Cc2c[nH]c3ccccc23)C(=O)N[C@@H](CC(=O)O)C1=O [Example 2337] ({CH2CO}-FWD[NHexGly]Y[Nle]NR[NMeNle][Ahp(2)]P[Tle]DCS[AEEA][Aun]-OH; thioether N-14) |  | 7.66 | 
CCCCCCN1CC(=O)N[C@@H](Cc2ccc(O)cc2)C(=O)N[C@@H](CCCC)C(=O)N[C@@H](CC(N)=O)C(=O)N[C@@H](CCCNC(=N)N)C(=O)N(C)[C@@H](CCCC)C(=O)N[C@@H](CCCCC)C(=O)N2CCC[C@H]2C(=O)N[C@@H](C(C)(C)C)C(=O)N[C@@H](CC(=O)O)C(=O)N[C@H](C(=O)N[C@@H](CC(N)=O)C(=O)NCCOCCOCC(=O)NCCCCCCCCCCC(=O)O)CSCC(=O)N[C@@H](Cc2ccccc2)C(=O)N[C@@H](Cc2c[nH]c3ccccc23)C(=O)N[C@@H](CC(=O)O)C1=O [Example 2338] ({CH2CO}-FWD[NHexGly]Y[Nle]NR[NMeNle][Ahp(2)]P[Tle]DCN[AEEA][Aun]-OH; thioether N-14) |  | 7.28 | 
CCCCCCN1CC(=O)N[C@@H](Cc2ccc(O)cc2)C(=O)N[C@@H](CCCC)C(=O)N[C@@H](CC(N)=O)C(=O)N[C@@H](CCCNC(=N)N)C(=O)N(C)[C@@H](CCCC)C(=O)N[C@@H](CCCCC)C(=O)N2CCC[C@H]2C(=O)N[C@@H](C(C)(C)C)C(=O)N[C@@H](CC(=O)O)C(=O)N[C@H](C(=O)N[C@@H](CN)C(=O)NCCOCCOCC(=O)NCCCCCCCCCCC(=O)O)CSCC(=O)N[C@@H](Cc2ccccc2)C(=O)N[C@@H](Cc2c[nH]c3ccccc23)C(=O)N[C@@H](CC(=O)O)C1=O [Example 2339] ({CH2CO}-FWD[NHexGly]Y[Nle]NR[NMeNle][Ahp(2)]P[Tle]DC[Dap][AEEA][Aun]-OH; thioether N-14) |  | 7.58 | 
CCCCCCN1CC(=O)N[C@@H](Cc2ccc(O)cc2)C(=O)N[C@@H](CCCCC)C(=O)N[C@@H](CC(N)=O)C(=O)N[C@@H](CCCNC(=N)N)C(=O)N[C@@H](CC(C)C)C(=O)N[C@@H](CCCCC)C(=O)N2CCC[C@H]2C(=O)N[C@@H](C(C)C)C(=O)N[C@@H](CO)C(=O)N[C@H](C(=O)N[C@@H](CCC(=O)NCCCCCCCCCCC(=O)O)C(=O)O)CSCC(=O)N[C@@H](Cc2ccccc2)C(=O)N[C@@H](Cc2ccc(O)cc2)C(=O)N[C@@H](CC(=O)O)C1=O [Example 2340] ({CH2CO}-FYD[NHexGly]Y[Ahp(2)]NRL[Ahp(2)]PVSC[γGlu][Aun]-OH; thioether N-14) | 7.72 |  | 
CCCCCCN1CC(=O)N[C@@H](Cc2ccc(O)cc2)C(=O)N[C@@H](CCCCC)C(=O)N[C@@H](CC(N)=O)C(=O)N[C@@H](CCCNC(=N)N)C(=O)N[C@@H](CC(C)C)C(=O)N[C@@H](CCCCC)C(=O)N2CCC[C@H]2C(=O)N[C@@H](C(C)C)C(=O)N[C@@H](CO)C(=O)N[C@H](C(=O)NCC(=O)N[C@@H](CCC(=O)O)C(=O)NCCCCCCCCCCC(=O)O)CSCC(=O)N[C@@H](Cc2ccccc2)C(=O)N[C@@H](Cc2ccc(O)cc2)C(=O)N[C@@H](CC(=O)O)C1=O [Example 2341] ({CH2CO}-FYD[NHexGly]Y[Ahp(2)]NRL[Ahp(2)]PVSCGE[Aun]-OH; thioether N-14) |  |  | pIC50 (293T cells expressing mouse VISTA, competition with biotinylated peptide (2 nM)): 7.24
CCCCCCN1CC(=O)N[C@@H](Cc2ccc(O)cc2)C(=O)N[C@@H](CCCC)C(=O)N[C@@H](CC(=O)O)C(=O)N[C@@H](CCCNC(=N)N)C(=O)N[C@@H](CC(C)C)C(=O)N[C@@H](CCCCC)C(=O)N2CCC[C@H]2C(=O)N[C@@H](C(C)C)C(=O)N2CCC[C@H]2C(=O)N[C@H](C(=O)NCC(=O)O)CSCC(=O)N[C@@H](Cc2ccccc2)C(=O)N[C@@H](Cc2ccc(O)cc2)C(=O)N[C@@H](CC(=O)O)C1=O [compound 1118] ({CH2CO}-FYD[NHexGly]Y[Nle]DRL[Ahp(2)]PVPCG-OH; thioether N-14) | 7.52 |  | 
CCCCCCN1CC(=O)N[C@@H](Cc2ccc(O)cc2)C(=O)N[C@@H](CCC)C(=O)N[C@@H](CC(N)=O)C(=O)N[C@@H](CCCNC(=N)N)C(=O)N[C@@H](CC(C)C)C(=O)N[C@@H](CCCCC)C(=O)N2CCC[C@H]2C(=O)N[C@@H](C(C)C)C(=O)N2CCC[C@H]2C(=O)N[C@H](C(=O)NCC(=O)O)CSCC(=O)N[C@@H](Cc2ccccc2)C(=O)N[C@@H](Cc2ccc(O)cc2)C(=O)N[C@@H](CC(=O)O)C1=O [compound 1120] ({CH2CO}-FYD[NHexGly]Y[Nva]NRL[Ahp(2)]PVPCG-OH; thioether N-14) | 8.59 |  | 
CCCCCCN1CC(=O)N[C@@H](Cc2ccc(O)cc2)C(=O)N[C@@H](CCCC)C(=O)N[C@@H](CC(N)=O)C(=O)N[C@@H](CCCNC(=N)N)C(=O)N[C@@H](CC(C)C)C(=O)N[C@@H](CCCCC)C(=O)N2CCC[C@H]2C(=O)N[C@@H](C(C)C)C(=O)N2CCC[C@H]2C(=O)N[C@H](C(=O)NCC(=O)O)CSCC(=O)N[C@@H](Cc2ccccc2)C(=O)N[C@@H](Cc2ccc(O)cc2)C(=O)N[C@@H](CC(=O)O)C1=O [compound 1121] ({CH2CO}-FYD[NHexGly]Y[Nle]NRL[Ahp(2)]PVPCG-OH; thioether N-14) | 7.49 |  | 
CCCCCCN1CC(=O)N[C@@H](Cc2ccc(O)cc2)C(=O)N[C@@H](C(C)C)C(=O)N[C@@H](CC(N)=O)C(=O)N[C@@H](CCCNC(=N)N)C(=O)N[C@@H](CC(C)C)C(=O)N[C@@H](CCCCC)C(=O)N2CCC[C@H]2C(=O)N[C@@H](C(C)C)C(=O)N2CCC[C@H]2C(=O)N[C@H](C(=O)NCC(=O)O)CSCC(=O)N[C@@H](Cc2ccccc2)C(=O)N[C@@H](Cc2ccc(O)cc2)C(=O)N[C@@H](CC(=O)O)C1=O [compound 1122] ({CH2CO}-FYD[NHexGly]YVNRL[Ahp(2)]PVPCG-OH; thioether N-14) | 7.42 |  | 
CCCCCCN1CC(=O)N[C@@H](Cc2ccc(O)cc2)C(=O)N[C@@H](CC)C(=O)NCC(=O)N[C@@H](CCCNC(=N)N)C(=O)N[C@@H](CC(C)C)C(=O)N[C@@H](CCCCC)C(=O)N2CCC[C@H]2C(=O)N[C@@H](C(C)C)C(=O)N2CCC[C@H]2C(=O)N[C@H](C(=O)NCC(=O)O)CSCC(=O)N[C@@H](Cc2ccccc2)C(=O)N[C@@H](Cc2ccc(O)cc2)C(=O)N[C@@H](CC(=O)O)C1=O [compound 1123] ({CH2CO}-FYD[NHexGly]Y[Abu]GRL[Ahp(2)]PVPCG-OH; thioether N-14) | 7.60 |  | 
